Data published in patent publication US7820172B1, “Laminin-derived multi-domain peptides” (BioSurface Engineering Technologies, Inc., priority 2006, dated 2010).
Positions of bridges follow the written chain, without caps; N, C: chain ends. Non-standard residues stand in square brackets, D forms with d. Residues, ends and D or L forms follow the SMILES beside them. Chains are numbered I, II in the order given. No end group written: not given here. Ahx = NCCCCCC(=O)O

Key:
RMEC cells = assay type: cell-based, rat; details: for increase in percentage cells bound on polystyrene: 0.1 μg/ml, two hours, as a percentage of uncoated controls; for cell binding to the polystyrene surface: RMEC cells, versus uncoated controls
Protocol: Cells Adhesion and Proliferation on LA2 coated surfaces. To evaluate the effects of LA2-coating on cell attachment, untreated polystyrene 96-well plates were coated with LA2 in concentration indicated in figures. In the cases of EVA films, ePTFE and titanium, the materials were placed in 48- or 96-well plate and coated with 2 μg/ml of LA2. Cell suspension in density of 1×10^6/ml was added to the wells. […] Cell number on the surface was determined using CyQuant® cell Proliferation Kit (Molecular Probes, Eugene, Oreg.). To detect cell adhesion on the titanium and ePTFE surfaces, cells were fixed with 4% buffered formalin and stained with bis-benzamide, viewed using fluorescence microscopy, and images recorded on digital media. In the cell proliferation studies, EVA films (6.5 mm diameter), similar to those used in the cell adhesion studies, were coated with 2 μg LA2/ml. The coated films were placed in untreated polystyrene 96-well plate and A7R5 cell suspension in density of 1×10^5/ml was added to the wells. After incubation of 3 hours, 3 and 7 days, the EVA films were transferred to a new 96-well plate and cell number on the film was determined using CyQuant® cell Proliferation Kit.
YIGSR is a different laminin adhesion sequence that has been used to increase cell attachment to device surfaces. […] Since cells could bind to LA2 via cell surface heparan sulfate, the heparin binding domain of LA2 was blocked by coating peptide on substrate-adsorbed heparin.

Male SD rats = experiment: Tissue integration of LA2-coated ePTFE in rat subcutaneous implant model; assay type: in vivo; details: two weeks after implant
Protocol: Tissue integration of LA2-coated material in rat implant model. Male SD rats were anesthetized using an intraperitoneal administration of ketamine (40 mg/kg) and xylazine (5 mg/kg). Excess hair was removed and sterile surgical sites were prepared on the lower back. Subcutaneous pouches, approximately 3 cm long, were made through a skin incision using a hemostat and blunt dissection. A wafer (1×1.5 cm) of porous ePTFE was introduced into a subcutaneous pouch. The pouches were positioned on the upper flanks on either side of the backbone, with one wafer coated with MD LA2 and the other wafer uncoated. After the implant, the incision was closed with stainless steel surgical clips. Animals were assigned to experiment groups randomly. Each animal received bilateral subcutaneous implants. There were 8 implant sites for each treatment. After 14 days, animals were euthanized and the ePTFE implants were surgically recovered and processed for subsequent staining with hemotoxylin and eosin.
We hypothesized that ePTFE coated with LA2 would display improved tissue integration. […] In this analysis, the depth of tissue penetration was monitored by histomorphometric methods and scored on a scale of 1-4 (in 25% increments).

cell attachment = experiment: Related cell binding assays comparing coatings (cell type not stated); assay type: cell-based; details: coating
C2C12 cells = experiment: Attachment of C2C12 cells to coated polystyrene; assay type: cell-based, murine
Protocol: FIG. 1. Microphotographs of C2C12 cell on LA2 polystyrene. Murine myoblast C2C12 cells were seeded on uncoated polystyrene (A), or polystyrene coated 0.05-(B), 0.2-(C), and 0.4 (D) μg/ml LA2. Three hours after cell seeding, the materials were washed with PBS and micrographs taken with phase contrast optics. Original magnification 200×.
FIG. 2. Attachment of C2C12 cells to LA2 or SIKVAV (SEQ ID NO:16) coated polystyrene. C2C12 cells were seeded on polystyrene surface coated with LA2 (A) or SIKVAV (SEQ ID NO:16) (B). Three hours after seeding, unbound cells were removed by rinsing, and relative cell number determined using a fluorescent assay as described.
Cells Adhesion and Proliferation on LA2 coated surfaces. To evaluate the effects of LA2-coating on cell attachment, untreated polystyrene 96-well plates were coated with LA2 in concentration indicated in figures. […] Cell number on the surface was determined using CyQuant® cell Proliferation Kit (Molecular Probes, Eugene, Oreg.). To detect cell adhesion on the titanium and ePTFE surfaces, cells were fixed with 4% buffered formalin and stained with bis-benzamide, viewed using fluorescence microscopy, and images recorded on digital media. […] After incubation of 3 hours, 3 and 7 days, the EVA films were transferred to a new 96-well plate and cell number on the film was determined using CyQuant® cell Proliferation Kit.

cell binding = experiment: Competitive blocking of cell binding to LA2; assay type: cell-based; details: binding not eliminated by either agent individually

Row | Molecule | increase in percentage cells bound on polystyrene (RMEC cells) | cell binding to the polystyrene surface (RMEC cells) | level of cell binding when used as competitive blocking agent (cell binding) | also measured
1 | CC[C@H](C)[C@H](NC(=O)[C@H](CCCNC(=N)N)NC(=O)[C@H](CCC(=O)O)NC(=O)[C@H](CC(C)C)NC(=O)[C@H](CCCCN)NC(=O)[C@H](CCCNC(=N)N)NC(=O)[C@H](CCCCN)NC(=O)[C@H](CCCNC(=N)N)NC(=O)CCCCCNC(=O)CCCCCNC(=O)CCCCCNC(=O)[C@H](CCCCNC(=O)[C@H](C)NC(=O)[C@H](C)NC(=O)[C@@H](NC(=O)[C@H](C)NC(=O)[C@@H](NC(=O)[C@H](CCCCN)NC(=O)[C@@H](NC(=O)[C@@H](N)CO)[C@@H](C)CC)C(C)C)C(C)C)NC(=O)[C@H](C)NC(=O)[C@H](C)NC(=O)[C@@H](NC(=O)[C@H](C)NC(=O)[C@@H](NC(=O)[C@H](CCCCN)NC(=O)[C@@H](NC(=O)[C@@H](N)CO)[C@@H](C)CC)C(C)C)C(C)C)C(=O)N[C@@H](C)C(=O)N[C@@H](CCCNC(=N)N)C(N)=O [LA2, H-SIKVAVAAK(H-SIKVAVAA)-Ahx-Ahx-Ahx-RKRKLERIAR-NH2] (I: H-SIKVAVAAK[Ahx][Ahx][Ahx]RKRKLERIAR-NH2 / II: H-SIKVAVAA; amide I:9-II:C) | over 150% |  |  | inflammation (Male SD rats): little evidence of inflammation
2 | H-YIGSRAAK(H-YIGSRAA)-Ahx-Ahx-Ahx-RKRKLERIAR-NH2 (chain 1 H-YIGSRAAK[Ahx][Ahx][Ahx]; also: branched: chain 2 on Lys8 side chain of chain 1, chain 1 C-terminus joined to chain 3 N-terminus via Ahx-Ahx-Ahx) [MD Peptide 2, similar multi-domain peptide containing YIGSR] | over 50% | substantially more effective than uncoated controls |  | cell attachment versus linear SIKVAV, dimerized SIKVAV and random-sequence peptides (cell attachment): more effective
3 | SEQ ID NO:25 (KPVSLSYRAPARFFESHVA; Random sequence) |  | did not support cell binding |  | 
4 | SEQ ID NO:26 (DTAYKDWPNLFREIR; Random sequence) |  | did not support cell binding |  | 
5 | SIKVAV (Cellular attachment peptide sequence) |  |  | reduced the level of cell binding | coating concentration required to achieve the same levels of cell attachment (C2C12 cells; C2C12, polystyrene (FIG. 2)): 100 µg/mL; cell attachment compared to uncoated polystyrene (C2C12 cells; C2C12 cells, coated polystyrene, 3 hours): able to increase cell attachment
6 | heparin |  |  | reduced the level of cell binding | 
